Assay results taken from US12527804B2, “Microemulsion delivery systems for alcohol-soluble species including DHEA, pregnenolone, and chrysin for reducing menopausal symptoms” (Quicksilver Scientific, Inc., priority 2021, dated 2026).
Converted amounts (≈) assume the structure as drawn. Like-named read-outs stand apart in the source and are kept apart here.

Assays:
[1] = tested on: peri- and postmenopausal subjects; test: Combination therapy of MOIW microemulsion with progesterone, menopausal symptoms; assay type: in vivo, human; settings: most perimenopausal subjects, administered daily in combination with MOIW microemulsion
Experimental: Dosing for this combination therapy includes use of the present MOIW microemulsion as previously described with the addition of progesterone. For use in the alleviation of menopausal symptoms, from 5 mg to 18 mg of progesterone is preferably administered daily, with 8 mg to 16 mg of progesterone providing a therapeutically effective dose for postmenopausal subjects and with 8 mg to 10 mg of progesterone providing a therapeutically effective dose for perimenopausal subjects. A therapeutically effective dose for most perimenopausal subjects was determined to be approximately 8 mg.
A preferred dosing for this combination therapy includes intra-oral administration of the MOIW microemulsion ante meridiem with topical administration of the thickened MOIW post meridiem. For perimenopausal subjects using intermittent dosing of the MOIW microemulsion, the same intermittent dosing is also preferred for the thickened MOIW microemulsion progesterone topical.

[2] = Solubility of DHEA in ethanol and MCT oil; assay type: physicochemical
Excerpt: An alcohol-soluble species is a species that is insoluble in water and has a greater solubility in ethanol than in medium chain triglyceride (MCT) oils. […] Alcohol-soluble species are preferably pharmacologically active, more preferably are a drug or a supplement, and neither include nor are water. Thus, liquids and solids may exist that technically are soluble in alcohol, but because they also are soluble in water or more or equivalently soluble in MCT oils than in ethanol are not “alcohol-soluble species”.
Solubilized means that the alcohol-soluble species to be delivered is in the solution of the droplet. […] Thus, if either average particle diameters greater than 200 nm or precipitated crystals visible to the naked eye form, the alcohol-soluble species is not solubilized in the solution of the droplet. If an alcohol-soluble species is not solubilized in the solution, it is insoluble in the solution. In many respects, solubility may be thought of as a concentration dependent continuum. For example, the following descriptive terms may be used to express solubility of a solute in a solvent (grams solid/mL of solvent) at 25 degrees Celsius: […]

Structure (SMILES)	therapeutically effective dose of progesterone [1]	solubility ([2]; ethanol, organic solvent or mixture, read-out: solubility in ethanol)	solubility ([2]; medium chain triglyceride (MCT) oil, oil or lipid, MCT oil, read-out: solubility in MCT oil)
CC(=O)[C@H]1CC[C@H]2[C@@H]3CCC4=CC(=O)CC[C@]4(C)[C@H]3CC[C@]12C [progesterone]	approximately 8 mg		
C[C@]12CC[C@H](O)CC1=CC[C@@H]1[C@@H]2CC[C@]2(C)C(=O)CC[C@@H]12 [DHEA, dehydroepiandrosterone (3-beta-hydroxyandrosteron-5-en-17-one)]		~150 mg/mL (≈ 520 mM)	~10 mg/mL (≈ 34.7 mM)
